Calls of active or inactive are those of the source. No rule for the calls is given here.
System: rodent lifetime carcinogenesis bioassay, tumor incidence TD50
Assay: carcinogenic potency in animals, long-term in vivo studies, CPDB compilation (AID 1745844)

## CC(C)n1c(/C=C/[C@H](O)C[C@H](O)CC(=O)O)c(-c2ccc(F)cc2)c2ccccc21
rat, strain Charles River CD (Sprague-Dawley), females, by gavage, site: liver, lesion: hepatocellular adenoma, dosed 104 weeks, study length 104 weeks
  TD50: 2780 mg/kg/day
rat, strain Charles River CD (Sprague-Dawley), females, by gavage, site: liver, lesion: hepatocellular carcinoma, dosed 104 weeks, study length 104 weeks
  TD50: 916 mg/kg/day
rat, strain Charles River CD (Sprague-Dawley), females, by gavage, site: stomach, lesion: papilloma, dosed 104 weeks, study length 104 weeks
  TD50: 916 mg/kg/day
rat, strain Charles River CD (Sprague-Dawley), males, by gavage, site: stomach, lesion: papilloma, dosed 104 weeks, study length 104 weeks
  TD50: 610 mg/kg/day
rat, strain Charles River CD (Sprague-Dawley), males, by gavage, site: stomach, lesion: squamous-cell carcinoma, dosed 104 weeks, study length 104 weeks
  TD50: 919 mg/kg/day
rat, strain Charles River CD (Sprague-Dawley), males, by gavage, site: thyroid gland, lesion: follicular adenocarcinoma, dosed 104 weeks, study length 104 weeks
  TD50: 258 mg/kg/day
rat, strain Charles River CD (Sprague-Dawley), males, by gavage, site: thyroid gland, lesion: follicular-cell adenoma, dosed 104 weeks, study length 104 weeks
  TD50: 125 mg/kg/day

## CCO
hamster, strain Syrian Golden, males, in drinking water, site: trachea, lesion: one or several types, types not named, dosed 29 weeks, study length 78 weeks
  carcinogen call: negative (inactive)
mouse, strain A, males, in drinking water, site: liver, lesion: hepatocellular adenoma, dosed 72 weeks, study length 72 weeks
  TD50: 127000 mg/kg/day
mouse, strain BALB/c, males, in drinking water, site: forestomach, lesion: squamous-cell papilloma, dosed 69 weeks, study length 86 weeks
  carcinogen call: negative (inactive)
mouse, strain Swiss, females, in drinking water, site: any site (literature study), lesion: several types, types named in the paper, dosed 69 weeks, study length 86 weeks
  TD50: 21400 mg/kg/day (inactive)
mouse, strain Swiss, females, in drinking water, site: forestomach, lesion: squamous-cell papilloma, dosed 69 weeks, study length 86 weeks
  TD50: 10900 mg/kg/day (inactive)
mouse, strain Swiss, males, in drinking water, site: lung, lesion: adenoma, dosed 69 weeks, study length 86 weeks
  carcinogen call: negative (inactive)
rat, strain ACI, males, in drinking water, site: forestomach, lesion: papilloma, dosed 52 weeks, study length 52 weeks
  TD50: 4980 mg/kg/day
rat, strain Charles River CD (Sprague-Dawley), females, in drinking water, site: any site (literature study), lesion: one or several types, types not named, dosed 104 weeks, study length 104 weeks
  carcinogen call: negative (inactive)
rat, strain Charles River CD (Sprague-Dawley), females, in drinking water, site: liver, lesion: neoplastic nodule, dosed 104 weeks, study length 104 weeks
  carcinogen call: negative (inactive)
rat, strain Charles River CD (Sprague-Dawley), males, in drinking water, site: any site (literature study), lesion: one or several types, types not named, dosed 104 weeks, study length 104 weeks
  carcinogen call: negative (inactive)
rat, strain Charles River CD (Sprague-Dawley), males, in drinking water, site: liver, lesion: hepatocellular carcinoma, dosed 104 weeks, study length 104 weeks
  carcinogen call: negative (inactive)
rat, strain Charles River CD (Sprague-Dawley), males, in drinking water, site: liver, lesion: neoplastic nodule, dosed 104 weeks, study length 104 weeks
  TD50: 84800 mg/kg/day (inactive)
rat, strain F344/DuCrj, males, in drinking water, site: forestomach, lesion: one or several types, types not named, dosed 51 weeks, study length 52 weeks
  carcinogen call: negative (inactive)
rat, strain F344/DuCrj, males, in drinking water, site: stomach, glandular, lesion: one or several types, types not named, dosed 51 weeks, study length 52 weeks
  carcinogen call: negative (inactive)
rat, strain Slc-Wistar, males, in drinking water, site: liver, lesion: hepatocellular adenoma, dosed 120 weeks, study length 120 weeks
  TD50: 56100 mg/kg/day (inactive)
rat, strain Slc-Wistar, males, in drinking water, site: liver, lesion: hepatocellular carcinoma, dosed 120 weeks, study length 120 weeks
  TD50: 93900 mg/kg/day (inactive)
rat, strain Slc-Wistar, males, in drinking water, site: liver, lesion: several types, types named in the paper, dosed 120 weeks, study length 120 weeks
  TD50: 33800 mg/kg/day (inactive)
rat, strain Sprague-Dawley, both sexes, in drinking water, site: any site (literature study), lesion: malignant tumor, dosed 111 weeks, study length 111 weeks
  carcinogen call: negative (inactive)
rat, strain Sprague-Dawley, females, in drinking water, site: any site (literature study), lesion: malignant tumor, dosed 104 weeks, study length 120 weeks
  TD50: 61000 mg/kg/day
rat, strain Sprague-Dawley, females, in drinking water, site: any site (literature study), lesion: several types, types named in the paper, dosed 104 weeks, study length 120 weeks
  TD50: 5870 mg/kg/day
rat, strain Sprague-Dawley, females, in drinking water, site: liver, lesion: hepatocellular adenoma, dosed 104 weeks, study length 120 weeks
  TD50: 201000 mg/kg/day
rat, strain Sprague-Dawley, females, in drinking water, site: mammary gland, lesion: benign tumor, dosed 104 weeks, study length 120 weeks
  TD50: 6070 mg/kg/day
rat, strain Sprague-Dawley, females, in drinking water, site: mammary gland, lesion: fibroadenoma, dosed 104 weeks, study length 120 weeks
  TD50: 8790 mg/kg/day
rat, strain Sprague-Dawley, females, in drinking water, site: mammary gland, lesion: several types, types named in the paper, dosed 104 weeks, study length 120 weeks
  TD50: 4710 mg/kg/day
rat, strain Sprague-Dawley, females, in drinking water, site: pancreas, lesion: adenoma, dosed 104 weeks, study length 120 weeks
  TD50: 21900 mg/kg/day
rat, strain Sprague-Dawley, females, in drinking water, site: pituitary gland, lesion: neoplasm, NOS, dosed 104 weeks, study length 120 weeks
  TD50: 5480 mg/kg/day
rat, strain Sprague-Dawley, males, in drinking water, site: adrenal gland, lesion: one or several types, types not named, dosed 130 weeks, study length 130 weeks
  TD50: 13700 mg/kg/day
rat, strain Sprague-Dawley, males, in drinking water, site: any site (literature study), lesion: malignant tumor, dosed 104 weeks, study length 120 weeks
  TD50: 7180 mg/kg/day
rat, strain Sprague-Dawley, males, in drinking water, site: any site (literature study), lesion: several types, types named in the paper, dosed 104 weeks, study length 120 weeks
  TD50: 1210 mg/kg/day
rat, strain Sprague-Dawley, males, in drinking water, site: any site (literature study), lesion: several types, types named in the paper, dosed 130 weeks, study length 130 weeks
  TD50: 2130 mg/kg/day
rat, strain Sprague-Dawley, males, in drinking water, site: liver, lesion: hepatocellular carcinoma, dosed 104 weeks, study length 120 weeks
  TD50: 164000 mg/kg/day
rat, strain Sprague-Dawley, males, in drinking water, site: liver, lesion: hepatocellular carcinoma, dosed 130 weeks, study length 130 weeks
  TD50: 28400 mg/kg/day
rat, strain Sprague-Dawley, males, in drinking water, site: liver, lesion: hyperplastic nodule, dosed 130 weeks, study length 130 weeks
  TD50: 8260 mg/kg/day
rat, strain Sprague-Dawley, males, in drinking water, site: pancreas, lesion: carcinoma, dosed 104 weeks, study length 120 weeks
  TD50: 17500 mg/kg/day
rat, strain Sprague-Dawley, males, in drinking water, site: pancreas, lesion: one or several types, types not named, dosed 130 weeks, study length 130 weeks
  TD50: 13700 mg/kg/day
rat, strain Sprague-Dawley, males, in drinking water, site: pancreas, lesion: several types, types named in the paper, dosed 104 weeks, study length 120 weeks
  TD50: 33200 mg/kg/day
rat, strain Sprague-Dawley, males, in drinking water, site: pituitary gland, lesion: one or several types, types not named, dosed 130 weeks, study length 130 weeks
  TD50: 9110 mg/kg/day

## NC1=NCN([C@@H]2O[C@H](CO)[C@@H](O)[C@H]2O)C(=O)N1
rat, strain Fischer 344, males, i.p., site: any site (literature study), lesion: one or several types, types not named, dosed 52 weeks, study length 52 weeks
  TD50: 20.7 mg/kg/day

## CN(N=O)c1ccc([N+](=O)[O-])cc1
rat, strain Fischer 344, males, in drinking water, site: any site (literature study), lesion: several types, types named in the paper, dosed 50 weeks, study length 114 weeks
  carcinogen call: negative (inactive)
rat, strain Fischer 344, males, in drinking water, site: liver, lesion: hyperplastic nodule, dosed 50 weeks, study length 114 weeks
  TD50: 5.87 mg/kg/day (inactive)

## Cc1c(N(C)CS(=O)(=O)O)c(=O)n(-c2ccccc2)n1C
mouse, strain B6C3F1, females, in drinking water, site: liver, lesion: hepatocellular carcinoma, dosed 75 weeks, study length 86 weeks
  TD50: 7120 mg/kg/day
mouse, strain B6C3F1, females, in drinking water, site: liver, lesion: several types, types named in the paper, dosed 75 weeks, study length 86 weeks
  TD50: 742 mg/kg/day
mouse, strain B6C3F1, males, in drinking water, site: liver, lesion: several types, types named in the paper, dosed 77 weeks, study length 86 weeks
  TD50: 547 mg/kg/day
rat, strain F344/DuCrj, males, in drinking water, site: liver, lesion: neoplastic nodule, dosed 72 weeks, study length 83 weeks
  TD50: 400 mg/kg/day
rat, strain Wistar, females, in feed, site: liver, lesion: adenoma, dosed 104 weeks, study length 130 weeks
  TD50: 33100 mg/kg/day (inactive)
rat, strain Wistar, females, in feed, site: liver, lesion: angiosarcoma, dosed 104 weeks, study length 130 weeks
  TD50: 41400 mg/kg/day (inactive)
rat, strain Wistar, females, in feed, site: liver, lesion: liver-cell carcinoma, dosed 104 weeks, study length 130 weeks
  TD50: 8330 mg/kg/day (inactive)
rat, strain Wistar, females, in feed, site: mammary gland, lesion: adenoma, dosed 104 weeks, study length 130 weeks
  TD50: 328 mg/kg/day (inactive)
rat, strain Wistar, males, in feed, site: liver, lesion: adenoma, dosed 104 weeks, study length 130 weeks
  TD50: 3340 mg/kg/day (inactive)
rat, strain Wistar, males, in feed, site: liver, lesion: anaplastic carcinoma, dosed 104 weeks, study length 130 weeks
  carcinogen call: negative (inactive)

## CCCOC(=O)C1c2cc3c(cc2CC(C)C1C(=O)OCCC)OCO3 (configuration not stated)
mouse, strain B6AKF1, females, oral dosing, site: any site (literature study), lesion: several types, types named in the paper, dosed 76 weeks, study length 76 weeks
  TD50: 4390 mg/kg/day (inactive)
mouse, strain B6AKF1, females, oral dosing, site: liver, lesion: hepatoma, dosed 76 weeks, study length 76 weeks
  carcinogen call: negative (inactive)
mouse, strain B6AKF1, females, oral dosing, site: lung, lesion: adenoma, dosed 76 weeks, study length 76 weeks
  TD50: 4690 mg/kg/day (inactive)
mouse, strain B6AKF1, males, oral dosing, site: any site (literature study), lesion: several types, types named in the paper, dosed 76 weeks, study length 76 weeks
  carcinogen call: negative (inactive)
mouse, strain B6AKF1, males, oral dosing, site: liver, lesion: hepatoma, dosed 76 weeks, study length 76 weeks
  carcinogen call: negative (inactive)
mouse, strain B6AKF1, males, oral dosing, site: lung, lesion: adenoma, dosed 76 weeks, study length 76 weeks
  carcinogen call: negative (inactive)
mouse, strain B6C3F1, females, oral dosing, site: any site (literature study), lesion: one or several types, types not named, dosed 76 weeks, study length 76 weeks
  carcinogen call: negative (inactive)
mouse, strain B6C3F1, females, oral dosing, site: liver, lesion: hepatoma, dosed 76 weeks, study length 76 weeks
  carcinogen call: negative (inactive)
mouse, strain B6C3F1, females, oral dosing, site: lung, lesion: several types, types named in the paper, dosed 76 weeks, study length 76 weeks
  carcinogen call: negative (inactive)
mouse, strain B6C3F1, males, oral dosing, site: any site (literature study), lesion: several types, types named in the paper, dosed 76 weeks, study length 76 weeks
  TD50: 374 mg/kg/day (inactive)
mouse, strain B6C3F1, males, oral dosing, site: liver, lesion: hepatoma, dosed 76 weeks, study length 76 weeks
  TD50: 1050 mg/kg/day (inactive)
mouse, strain B6C3F1, males, oral dosing, site: lung, lesion: adenoma, dosed 76 weeks, study length 76 weeks
  TD50: 4650 mg/kg/day (inactive)

## CN[C@H]1CCc2cc(OC)c(OC)c(OC)c2-c2ccc(OC)c(=O)cc21
rat, strain BR 46, males, i.v., site: any site (literature study), lesion: benign tumor, dosed 52 weeks, study length 104 weeks
  TD50: 0.248 mg/kg/day (inactive)
rat, strain BR 46, males, i.v., site: any site (literature study), lesion: malignant tumor, dosed 52 weeks, study length 104 weeks
  TD50: 0.129 mg/kg/day (inactive)
rat, strain BR 46, males, i.v., site: any site (literature study), lesion: several types, types named in the paper, dosed 52 weeks, study length 104 weeks
  TD50: 0.0787 mg/kg/day (inactive)
